Assay results from a melting point compilation (Tetko et al.; mined from patent text by program, amines drawn as free bases though some values may be those of a salt).

SMILES	melting point [°C]
CCC(C)C(OCc1ccccc1)C1C(C(=O)NCC(=O)O)NC(C2CCCCC2)C1[N+](=O)[O-] (stereo not drawn)	177 to 179
O=C1CSCC(c2ccc(F)cc2)N1 (stereo not drawn)	111 to 112
Cc1ccccc1CNC(=O)[C@@H]1CSCN1C(=O)[C@@H](O)[C@H](Cc1ccccc1)NC(=O)C(C)C(C)C(=O)OC[C@H]1O[C@@H](n2cc(C)c(=O)[nH]c2=O)CC1N=[N+]=[N-] (stereo partly drawn)	114 to 115
COC(=O)C(=O)CC(C)C1CCC2C3CC=C4CC(OC(C)=O)CCC4(C)C3CCC12C (stereo not drawn)	146 to 147
Brc1ccc2c(c1)Cc1cc(I)ccc1-2	179 to 185
CC(C)(C)OC(=O)N1CCN(C(=O)c2cc3ccccc3[nH]2)CC1	213 to 214
COc1cc(SC(F)F)nc(N)n1	83 to 84
CCS(=O)(=O)CC(=O)Nc1c(C)cccc1C	128 to 130
C[Si](C)(C)C#Cc1c(F)c(F)c(F)c(C#C[Si](C)(C)C)c1F	55 to 57
CC1(C)CC(=O)C2=C(C1)NC1=C(C(=O)CC(C)(C)C1)C2c1cccc(Oc2ccncc2)c1	186 to 188
CC(C)(C)c1cc(C(=O)c2ccc(N)cc2)cc(C(C)(C)C)c1O	164 to 166
CC(=O)Oc1ccccc1C(=O)N[C@@H]1CCCC[C@@H]1O[N+](=O)[O-] (relative stereo)	143 to 145
O=C(c1ccccc1CBr)c1ccccc1CBr	113 to 114
COc1nc2ccccc2nc1N(C)C(=O)N1CCN(c2cc(C)cc(C)c2)CC1	142 to 144
Cn1c([N+](=O)[O-])cnc1C1=NOC2CCCC12 (stereo not drawn)	89.5 to 91.5
O=Cc1cnc(-c2ccc(C(CC3CCOCC3)c3ccc(S(=O)(=O)C4CC4)cc3)[nH]2)s1 (stereo not drawn)	175 to 176
COc1ccc(C(=O)OC2CC3C(=O)NC4(C(=O)NS(=O)(=O)C5CC5)CC4C=CCCCCCC(NC(=O)OC(C)(C)C)C(=O)N3C2)cc1 (stereo not drawn)	151 to 153
CCOC(=O)c1cnc2ccccc2c1O	266
CCCCc1c(/C=C/C(=O)OC)cc(OC)c2ccccc12	63 to 64
CC(=O)Nc1ccc2c(c1)NC(=O)CC2(C)C	273 to 278
COc1cc2c(Oc3ccc(Cl)cc3F)ncnc2cc1OCc1ccncc1	197 to 198
O=c1[nH]c2ccc(F)c(F)c2c(=O)o1	> 240

SMILES	melting point [°C]
O=C(OC1N=C(c2ccccc2)c2ccccc2NC1=O)c1cc2ccccc2[nH]1 (racemic)	271 to 273
CC1(CN2CCN(C(=O)Cc3ccc(Cl)c(Cl)c3)CC2)Cn2cc([N+](=O)[O-])nc2O1 (stereo not drawn)	189 to 191
CCC(C)(C)Nc1c(NCc2ccc(F)cc2Cl)c(=O)c1=O	201 to 203
CC=Cc1cccc(Oc2ccccc2Cl)c1OC	61 to 62
O=C(O)c1cc(CO)nn1-c1ncccc1Cl	178 to 180
CN(c1cc(OC(F)(F)F)cc2cc(C(N)=O)[nH]c12)S(=O)(=O)c1cccs1	228 to 229
CC(C)(C)C(=O)CC(Sc1ccccc1)c1ccc(Cl)cc1 (stereo not drawn)	127 to 128
O=C1N(Cc2cccnc2)c2ccccc2C12COc1ccc3nonc3c12 (stereo not drawn)	230 to 232
CNc1nc(C)c(C(=O)C(C#N)=CN(C)C)s1	245 to 246
Cc1cccc([N+](=O)[O-])c1C(=O)Nc1nnn[nH]1	230 to 232
CN1CCNC1=NC(c1ccccc1)c1ccccc1	226 to 228
CCn1nc2c(N)nc3ccccc3c2c1CCS(C)(=O)=O	220 to 222
CCOC(=O)c1ccc2c(c1)sc1cc(Cl)ccc12	120 to 122
CCCCCCCCCCCCCCCC(=O)SC1CCN(C(C(=O)OC)c2ccccc2F)CC1 (stereo not drawn)	44 to 47
C=C1c2ccccc2C=Cn2c1nnc2S(C)=O (stereo not drawn)	140 to 142
CSC1=Nc2cc(Cl)ccc2N(C)c2cscc21	156 to 158
O=C(O)c1c(Cl)ccc2cc(C(F)(F)F)cnc12	250
O=C(c1ccc2c(c1)C(=O)N1CCC[C@H]1CO2)N1CCOCC1	158 to 161
CCCc1c(OCCCOc2ccc(C(C)=O)c(OCCCC(=O)O)c2CCC)ccc(C(C)=O)c1O	50 to 53
COC1CCN(S(=O)(=O)c2ccc([N+](=O)[O-])cc2C(F)(F)F)CC1	141 to 143
c1ccc(-c2cn[nH]c2)nc1	136
CCOC(=O)c1cn(C)c2cnc3c(F)c(F)ccc3c2c1=O	320

SMILES	melting point [°C]
N#Cc1cnc2cc(/C=C/CCCCN3CCOCC3)ccc2c1Nc1ccc(Cl)cc1Cl	139 to 140
COc1cccc2c(Sc3nc(C)c(CC(=O)O)s3)cc(C(=O)O)nc12	176 to 179
CCCC1CCc2c(c(F)c(F)c3oc(C)cc23)O1 (stereo not drawn)	75
COC(=O)c1cc2cc(Br)ccc2nc1Cl	176 to 177
CN(C)c1ccc(CNc2nc(Nc3cccc(NS(C)(=O)=O)c3)nc3[nH]cnc23)cc1	138 to 142
CCOC(=O)c1cc(Cl)cc(N)c1Cl	63 to 65
COc1cccc(C(=O)Nc2c[nH]nc2C(=O)NCCC#N)c1	118 to 121
O=C(O)COc1nc(F)c(Cl)cc1Cl	140 to 144
CC(=O)OCC(=O)Nc1ccc(C(CC2CCCC2)C(=O)Nc2nccs2)cc1 (stereo not drawn)	90 to 95
CC(=O)NN=Cc1ccc(N2CCN(C)CC2)nc1F	210 to 212
CC1OC(n2cnc3c(N)nc(N)nc32)C(O)C1O (stereo not drawn)	135 to 138
CSC(=NS(=O)(=O)c1ccccc1Cl)SC	119 to 123
CN1CC(CCNC(=S)NC(=O)c2ccccc2)CC2c3cccc4[nH]cc(c34)CC21 (stereo not drawn)	205 to 207
Clc1ccc(Cl)c(CN2CCNc3ncc(I)cc32)c1	169
O=[N+]([O-])c1ccccc1NC1CCCCC1	105 to 107
Cc1nnc2n1-c1sc(CCCN3CCOCC3)cc1C(c1ccccc1Cl)NC2 (stereo not drawn)	135 to 138
Cc1ccc(C=Nc2cc(F)ccc2C(=O)O)cc1	144 to 145
Cc1cccc(NC(=O)NC2N=C(c3ccccc3F)c3ccccc3N(CCC3OCCO3)C2=O)c1 (racemic)	214 to 215
CCCNC(=O)NC1Cc2ccc(C3=NNC(=O)CC3)cc2C1 (stereo not drawn)	214 to 216
CC(C)(C)OC(=O)NC1CCCCCC=CC2CC2(C(=O)NS(=O)(=O)C2CC2)NC(=O)C2CC(OC(=O)c3ccc(Cl)cc3)CN2C1=O (stereo not drawn)	143 to 145
O=C1NC(=S)SC1=C(c1ccccc1)c1ccccc1	192 to 194

The next lines start with the values.

melting point [°C]	SMILES
91 to 93	O=C(N=C1CCCN1Cc1ccccc1)Nc1cccc(Cl)c1
192 to 193	N#CCCNC(=O)c1cccc(-c2cccc3nc(Cc4cccc(C(F)(F)F)c4)cn23)c1
204 to 205	Nc1ccc(NC(=O)c2ccc(CNC(=O)OCc3cccnc3)cc2)cc1
163 to 165	CCCC(=O)c1cnc2c(OC)cccc2c1Nc1ccc(OC(=O)CC)cc1C
123 to 124	CCOCC(=O)N1Cc2cc(Cl)ccc2CC(C)C1=O (stereo not drawn)
163 to 166	CC(C)(C)OC(=O)C1CCCN1Cc1ccc2cc(NC(=O)c3ccc(-c4ccc(Cl)cc4)cc3)ccc2n1 (stereo not drawn)
156 to 158	O=C1N(N2CCCCC2)c2ccccc2C1(O)Cc1ccncc1 (stereo not drawn)
195 to 196	CNC(=O)c1sc2cnccc2c1Oc1ccc(CO)cc1
188 to 190	COC(=O)CCc1ccc(N2C(=O)CN(c3ccc(C#N)cc3)C2=O)cc1
71 to 72	O=C(OC1CCN(Cc2ccccc2)CC1)c1ccc(Br)cc1
135 to 136	CC(=O)NCc1ccc(CN2CCN(c3ccccc3)CC2)cc1[N+](=O)[O-]
161 to 163	COC(=O)CS(=O)C(C)c1ccc(-c2ccccc2)c(F)c1 (stereo not drawn)
118 to 120	COc1ccc(C2C(C#N)=C(N)Oc3c2ccc2cccnc32)cc1OC (stereo not drawn)
129 to 133	CNC(=O)C(C)Oc1ccc(Oc2ccc(C(F)(F)F)cc2)cc1 (stereo not drawn)
125 to 126	COc1cccc(CNS(=O)(=O)Cc2ccc3[nH]cc(CC#N)c3c2)c1
145 to 146	COC(=O)[C@H](Cc1ccccc1)NC(=O)c1ccc(N)cc1
55 to 57	CCCC(=O)NCCc1cccc2ccc(SC)cc12

melting point [°C]	SMILES
66 to 68	C=CCc1c(OCC=Cc2ccccc2)ccc2c1CCC(=O)N2CC=Cc1ccccc1
201 to 202	COc1ccc(COc2ccc(NC(C)=O)cc2C(=O)C=Cc2ccc(OCc3ccccc3)cc2)cc1
215 to 217	Cn1nc(O[C@@H]2c3cc(C#N)ccc3OC(CF)(CF)[C@H]2O)ccc1=O (relative stereo)
146 to 148	COc1ccc(CC(=O)N2CCn3c(c(C(N)=O)c(Cl)c3-c3ccccc3)C2)cc1
140 to 143	CCCCCCCCOc1ccc(C(=O)Oc2ccc3c(c2)C(C)c2cc(O)ccc2-3)cc1 (stereo not drawn)
161 to 163	COCc1nsc2ccc(-n3c(=O)cc(C(F)(F)F)n(C)c3=O)cc12
184 to 186	O=C1c2ccccc2-c2c1c1c(c(=O)n2CCCCNS(=O)(=O)c2ccccc2)C=CCC1
193 to 195	O=C(Nc1ccc(N2CC3CC3C2)nc1)c1cc2cc(F)ccc2n1Cc1cccc(F)c1 (stereo not drawn)
182	CC(C)c1ccc(NC(=O)N2CCc3cc(S(=O)(=O)N4CCN(c5cccc(Cl)c5)CC4)ccc32)cc1
146 to 148	CC(C)Oc1ccc(C(=O)N2CCNC2=Nc2c(Cl)cccc2Cl)cc1
179 to 182	Cc1nc2ccccc2n(-c2ccc(CC(=O)O)cc2)c1=O
185 to 186	CCCOc1ccc(C(=O)N/C(=C\c2ccc(OC(F)(F)F)cc2)C(=O)NCCO)cc1
286 to 288	CN(C)CCN1C(=O)N2[C@H](c3cccc(O)c3)c3[nH]c4ccc(Br)cc4c3C[C@@]2(C)C1=O (racemic)
74 to 76	CCCCC[C@@H](COc1ccc(C(=O)O)cc1)c1ccc2c(c1)C(C)(C)CCC2(C)C
191 to 192	C#Cc1ccc2c(c1)C(=O)N(c1ccc3c(c1)C=C3)C2=O
124 to 125	COCCNC(=O)c1cccc(-c2cccc3cc(Cc4cc(F)cc(Cl)c4)sc23)c1F
